# Data from patent US20250275938A1, “COMPOSITIONS AND METHODS FOR TREATMENT OF CANCER” (SCIROSBIO (FZC), priority 2022, published 2025).
# Columns and labels:
# rat brain tissue = experiment: Gene expression (qRT-PCR) in brain tissue of glioma-induced rats; type: in vivo; conditions: i.p. 7 days; vs tumor-control
# Procedure: Quantitative RT-PCR analysis of antioxidant enzymes (SOD and CAT), oxidative stress marker (Nrf-2), and apoptosis markers (BCL2 and Caspase-9). Total RNA from all experimental groups was isolated using RNA Express reagent (HiMedia, India) and the respective cDNAs were synthesized using a Hi-c-DNA Synthesis Kit (HiMedia, India). Quantitative RT-PCR was carried out using a CFX 96 thermocycler (Bio-Rad, Hercules, CA) and TB Green Premix Ex Taq 1 (Takara Bio, Otsu, Japan) to detect mRNA. Independent experiments were conducted in triplicate. The cycle threshold (Ct), representing a positive PCR result, is defined as the cycle number at which a sample's fluorescence intensity crossed the threshold automatically determined by the CFX 96.
# The relative changes in gene expression were calculated with the 2^−ΔΔCt method, wherein ΔΔCt=(Cttarget gene−Ctβ-actin) sample−([…]) calibrator.
# The qPCR analyses were performed to measure the expression levels of genes associated with anti-Warburg effect. The total RNA was extracted from the cell lysates and brain tissues of all the experimental groups using TRIZOL reagent (Takara Bio, Shiga, Japan). Quantitative RT-PCR was carried out using a CFX96 Real Time PCR Detection System (Bio-Rad, California, USA) and TB Green Premix Ex Taq I (Takara Bio, Shiga, Japan) to detect messenger ribonucleic acid (mRNA). […]
# [1] = system: HEK293T (Human Embryonic Kidney) cells; experiment: Trypan blue exclusion cytotoxicity on normal cell line; type: cell-based; conditions: treated at IC50 values determined in U87MG and C6, 24 hours
# Procedure: Cytotoxicity on a normal cell line.
# Furthermore, to check for the cytotoxicity of the drugs, a trypan blue dye exclusion assay was performed on a normal cell line, HEK293T, using the IC50 values of each drug, individually and in combination, as determined in U87MG and C6 cells and shown in Table 2.
# [2] = system: human hepatocellular carcinoma (HepG2) cells; experiment: MTT cell viability assay, HepG2; type: cell-based; conditions: 24 hours
# Procedure: Cell lines and culture conditions. A human hepatocellular carcinoma (HepG2) and ovarian cancer (SKOV3) cells were obtained from National Centre for Cell Science (NCCS), Pune, India. The cells HepG2 and SKOV3 were sub-cultured in Eagle's Minimum Essential Medium (EMEM) and McCoy's 5a supplemented with 10% FBS at 5% CO2 and 37° C. […] The cells were allowed to attach 70% to the surface prior to treatment. A stock solution of all the drugs (10 mg/ml) was made in distilled H2O and diluted to the required concentrations. Suspensions were aspirated 10 times before treatment. Cells treated with vehicle control were used as a control.
# [3] = system: SOD, CAT, GPx, GSH in C6 glioma cells; experiment: Antioxidant marker kits (SOD, CAT, GPx, GSH), C6; type: cell-based, rat; conditions: vs control
# Procedure: (§1) Antioxidant markers. […] All experiments were carried out according to the manufacturer's instructions. Three independent biological replicates were performed for each condition.
# [4] = system: SOD, CAT, GPx, GSH in U87MG glioma cells; experiment: Antioxidant marker kits (SOD, CAT, GPx, GSH), U87MG; type: cell-based, human; conditions: vs control
# Procedure: as §1
# TBARS in C6 cells = experiment: TBARS (MDA) assay, C6; type: cell-based, rat; conditions: vs control
# Procedure: (§2) Determination of TBARS levels. TBARS (thiobarbituric acid reactive substances), by-products of lipid peroxidation, were analyzed by measuring the concentration of malondialdehyde (MDA). The levels of MDA were measured in cell lysates using TBARS assay (Catalog No. 10009055, Cayman Chemical, Ann Arbor, USA). The concentration of lipid peroxides was calculated as an MDA equivalent using the extinction coefficient for the MDA-TBA complex of 1.56×10^5 M−1 cm^−1 at 532 nm.
# TBARS in U87MG cells = experiment: TBARS (MDA) assay, U87MG; type: cell-based, human; conditions: vs control
# Procedure: as §2
# [5] = LC/MS of drugs and active metabolites in plasma and brain (blood brain barrier); type: in vivo, rat
# Procedure: T, M & E (Sigma Aldrich, St. Louis, USA) were dissolved in sterile water and administered intra peritoneally for 7 days (from day 21 to day 27; where the day of tumor induction is considered day 0) to a rat with the dose specified in Table-4 (TME: 50+80+150 mg/kg body weight). After 7 days of treatment (on day 28), blood (plasma) was collected and the rat was euthanized, immediately the brain tissue was collected and stored at −80° C. The brain tissue was then processed accordingly to measure active metabolites through LC/MS.
# To 100 μl of plasma or brain (0.5 g crushed in 0.5 mL of sterile water), 20 μl of the working internal standard solution was added. The samples were deproteinised with acetonitrile and the supernatant (100 μl) was injected into the chromatographic system. For the brain, as described above, ciprofloxacin solution (20 μl) was added to 100 μl of crushed brain. Then, repeating the plasma sample process, 20 μl of the solution was injected into the chromatographic system.
# [6] = triple combination TME 50+80+150 mg/kg i.p. 7 days, NA = not detected
structure (smiles),measurement,setting,value
"O=C(O[C@@H]1Cc2c(O)cc(O)cc2O[C@@H]1c1cc(O)c(O)c(O)c1)c1cc(O)c(O)c(O)c1 [EGCG, [(2R,3R)-5,7-dihydroxy-2-(3,4,5-trihydroxyphenyl)-3,4-dihydro-2H-chromen-3-yl] 3,4,5-trihydroxybenzoate]",gene expression levels of Nrf-2 and HIF-1α,rat brain tissue,reduced expression
same,toxicity in normal HEK293T cells,[1],significant reduction in toxicity
same,"cell viability (MTT), in words",[2],reduction in cell viability in a dose-dependent fashion
same,"concentrations of antioxidant markers SOD, CAT, GPx, and GSH",[3],significantly enhanced
same,"concentrations of antioxidant markers SOD, CAT, GPx, and GSH",[4],significantly enhanced
same,TBARS levels,TBARS in C6 cells,significantly elevated
same,TBARS levels,TBARS in U87MG cells,significantly elevated
same,"transport across the blood brain barrier, in words",[5]; administered individually and in combination,crossed the BBB in its native form
same,Detected mass in LC-MS Brain,"[5]; individually treated T, M and E, i.p. 7 days, NA = not detected",466.11
same,Detected mass in LC-MS Brain,[5]; [6],456.11
same,Detected mass in LC-MS Plasma,[5]; [6],452.91
